Assay results from PubChem BioAssay (NCI).
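These data come from cells grown in 96-well plates and exposed to compound for 48 hours at five concentrations. GI50 is the concentration that inhibits growth by half. TGI: total growth inhibition.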

Tests used:
Assay in all cases: inhibition of tumour cell growth, NCI panel, 48 h
[1] = tested on: 786-0 renal
[2] = tested on: A498 renal
[3] = tested on: A549 NSCLC
[4] = tested on: ACHN renal
[5] = tested on: BT-549 breast
[6] = tested on: CAKI-1 renal
[7] = tested on: CCRF-CEM leukemia
[8] = tested on: COLO 205 colon
[9] = tested on: DU-145 prostate
[10] = tested on: EKVX NSCLC
[11] = tested on: HCC-2998 colon
[12] = tested on: HCT-116 colon
[13] = tested on: HCT-15 colon
[14] = tested on: HL-60(TB) leukemia
[15] = tested on: HOP-62 NSCLC
[16] = tested on: HOP-92 NSCLC
[17] = tested on: HS 578T breast
[18] = tested on: HT29 colon
[19] = tested on: IGROV1 ovarian
[20] = tested on: K-562 leukemia
[21] = tested on: KM12 colon
[22] = tested on: LOX IMVI melanoma
[23] = tested on: M14 melanoma
[24] = tested on: MALME-3M melanoma
[25] = tested on: MCF7 breast
[26] = tested on: MDA-MB-231 breast
[27] = tested on: MDA-MB-435
[28] = tested on: MOLT-4 leukemia
[29] = tested on: NCI-H226 lung
[30] = tested on: NCI-H23 lung
[31] = tested on: NCI-H460 lung
[32] = tested on: NCI-H522 lung
[33] = tested on: NCI/ADR-RES ovarian
[34] = tested on: OVCAR-3 ovarian
[35] = tested on: OVCAR-4 ovarian
[36] = tested on: OVCAR-5 ovarian
[37] = tested on: OVCAR-8 ovarian
[38] = tested on: PC-3 prostate
[39] = tested on: RXF 393 renal
[40] = tested on: SF-268 CNS
[41] = tested on: SF-295 CNS
[42] = tested on: SF-539 CNS
[43] = tested on: SK-MEL-2 melanoma
[44] = tested on: SK-MEL-28 melanoma
[45] = tested on: SK-MEL-5 melanoma
[46] = tested on: SK-OV-3 ovarian
[47] = tested on: SN12C renal
[48] = tested on: SNB-19 CNS
[49] = tested on: SNB-75 CNS
[50] = tested on: SR leukemia
[51] = tested on: SW-620 colon
[52] = tested on: T-47D breast
[53] = tested on: TK-10 renal
[54] = tested on: U251 CNS
[55] = tested on: UACC-257 melanoma
[56] = tested on: UACC-62 melanoma
[57] = tested on: UO-31 renal

## O=S(=O)(Nc1cccc(Cl)c1)c1ccc(-c2cnc(C3CC3)o2)cc1
[1]
  GI50: 3.9 µM
  TGI: 34.8 µM
[2]
  GI50: 0.453 µM
  TGI: 9.03 µM
[3]
  GI50: 1.35 µM
  TGI: 44 µM
[4]
  GI50: 0.925 µM
  TGI: 37 µM
[5]
  GI50: 1.25 µM
  TGI: 22.7 µM
[6]
  GI50: 0.232 µM
  TGI: 14 µM
[7]
  GI50: 0.624 µM
  TGI: > 100 µM
[8]
  GI50: 0.639 µM
  TGI: 6.18 µM
[9]
  GI50: 2.68 µM
  TGI: 29.1 µM
[10]
  GI50: 2.88 µM
  TGI: 40.3 µM
[11]
  GI50: 2.87 µM
  TGI: 17.1 µM
[12]
  GI50: 0.48 µM
  TGI: 18.7 µM
[13]
  GI50: 0.43 µM
  TGI: 20.3 µM
[14]
  GI50: 0.388 µM
  TGI: 12.3 µM
[15]
  GI50: 0.74 µM
  TGI: 16.3 µM
[16]
  GI50: 1.74 µM
  TGI: 15.2 µM
[17]
  GI50: 0.679 µM
  TGI: 16.6 µM
[18]
  GI50: 0.372 µM
  TGI: 12.2 µM
[19]
  GI50: 0.662 µM
  TGI: 21.6 µM
[20]
  GI50: 0.305 µM
  TGI: 66 µM
[21]
  GI50: 0.443 µM
  TGI: 16.6 µM
[22]
  GI50: 0.617 µM
  TGI: 18.4 µM
[23]
  GI50: 0.593 µM
  TGI: 24.3 µM
[24]
  GI50: 10.3 µM
  TGI: 32 µM
[25]
  GI50: 0.398 µM
  TGI: 51.6 µM
[26]
  GI50: 2.45 µM
  TGI: 22 µM
[27]
  GI50: 0.379 µM
  TGI: 16.7 µM
[28]
  GI50: 0.657 µM
  TGI: 60.1 µM
[29]
  GI50: 1.9 µM
  TGI: 17.2 µM
[30]
  GI50: 2.14 µM
  TGI: 20.4 µM
[31]
  GI50: 0.446 µM
  TGI: 16.7 µM
[32]
  GI50: 0.509 µM
  TGI: 16.2 µM
[33]
  GI50: 0.581 µM
  TGI: 17 µM
[34]
  GI50: 0.417 µM
  TGI: 12.3 µM
[35]
  GI50: 2.92 µM
  TGI: 16.7 µM
[36]
  GI50: 2.39 µM
  TGI: 18.3 µM
[37]
  GI50: 1.95 µM
  TGI: 32.9 µM
[38]
  GI50: 0.668 µM
  TGI: 17.6 µM
[39]
  GI50: 0.835 µM
  TGI: 10.9 µM
[40]
  GI50: 3.28 µM
  TGI: 25.2 µM
[41]
  GI50: 0.394 µM
  TGI: 12 µM
[42]
  GI50: 0.683 µM
  TGI: 11.8 µM
[43]
  GI50: 0.695 µM
  TGI: 20.3 µM
[44]
  GI50: 10.2 µM
  TGI: 23 µM
[45]
  GI50: 2.01 µM
  TGI: 14.4 µM
[46]
  GI50: 5.41 µM
  TGI: 24.9 µM
[47]
  GI50: 1.62 µM
  TGI: 20.9 µM
[48]
  GI50: 1.31 µM
  TGI: 35.8 µM
[49]
  GI50: 0.208 µM
  TGI: 1.96 µM
[50]
  GI50: 0.409 µM
  TGI: 32.4 µM
[51]
  GI50: 0.409 µM
  TGI: 31.3 µM
[52]
  GI50: 0.519 µM
  TGI: 22 µM
[53]
  GI50: 5.11 µM
  TGI: 26.5 µM
[54]
  GI50: 0.768 µM
  TGI: 19.8 µM
[55]
  GI50: 6.98 µM
  TGI: 30.2 µM
[56]
  GI50: 0.47 µM
  TGI: 15.3 µM
[57]
  GI50: 1.68 µM
  TGI: 18.8 µM
